Data: patent US20240239861A1, “GLUCAGON-RECEPTOR SELECTIVE POLYPEPTIDES AND METHODS OF USE THEREOF” (i2O Therapeutics, Inc., priority 2016, published 2024)
Where a SMILES comes first, the peptide text is derived from it. [ ]: non-standard residue; d: D form. Aib = CC(C)(N)C(=O)O

How the values were obtained:
[1] = biological target: human GCGR (Homo sapiens, UniProt P47871); experiment: Peptide-receptor mediated cAMP accumulation (LANCE Ultra cAMP) in CHO-K1 cells transfected with human GCGR; assay type: cell-based
[2] = biological target: human GLP-1R (Homo sapiens, UniProt P43220); experiment: Peptide-receptor mediated cAMP accumulation (LANCE Ultra cAMP) in CHO-K1 cells transfected with human GLP-1R; assay type: cell-based; conditions: hGLP1 pEC50 (cAMP mean (n = 3): 11 point curve starting at 1 nM, Table 3)
Chain of human GLP-1R (P43220 24-463): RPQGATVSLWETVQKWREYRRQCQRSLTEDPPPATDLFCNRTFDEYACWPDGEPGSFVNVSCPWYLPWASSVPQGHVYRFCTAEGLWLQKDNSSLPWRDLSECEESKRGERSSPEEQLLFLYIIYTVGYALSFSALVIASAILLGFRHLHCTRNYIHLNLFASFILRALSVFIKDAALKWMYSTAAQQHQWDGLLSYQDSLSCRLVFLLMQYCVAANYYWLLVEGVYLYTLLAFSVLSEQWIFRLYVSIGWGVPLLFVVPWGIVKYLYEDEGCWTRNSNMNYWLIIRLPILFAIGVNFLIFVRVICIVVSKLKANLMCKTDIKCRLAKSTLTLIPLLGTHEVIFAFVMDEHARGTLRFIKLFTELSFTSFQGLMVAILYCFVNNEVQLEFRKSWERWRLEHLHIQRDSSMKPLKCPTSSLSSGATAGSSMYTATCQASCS

Compound	EC50 ([1]; Table 3) [nM]	EC50 [2] [nM]	activation profile at the human glucagon receptor (GCGR) ([1]; FIG. 1A)
CC(C)C[C@H](NC(=O)[C@H](Cc1ccc(O)cc1)NC(=O)[C@H](CCCCN)NC(=O)[C@H](CO)NC(=O)[C@H](Cc1ccc(O)cc1)NC(=O)[C@H](CC(=O)O)NC(=O)[C@H](CO)NC(=O)[C@@H](NC(=O)[C@H](Cc1ccccc1)NC(=O)[C@@H](NC(=O)CNC(=O)[C@H](Cc1c[nH]cn1)NC(=O)[C@H](CO)NC(=O)[C@@H](N)Cc1ccc(O)cc1)[C@@H](C)O)[C@@H](C)O)C(=O)N[C@@H](CC(=O)O)C(=O)NC(C)(C)C(=O)N[C@@H](CCCCN)C(=O)N[C@@H](CCCNC(=N)N)C(=O)N[C@@H](C)C(=O)N[C@@H](CCC(N)=O)C(=O)N[C@@H](CCC(=O)O)C(=O)N[C@@H](Cc1ccccc1)C(=O)N[C@H](C(=O)NC(C)(C)C(=O)N[C@@H](Cc1c[nH]c2ccccc12)C(=O)N[C@@H](CC(C)C)C(=O)N[C@@H](CCC(=O)O)C(=O)N[C@@H](CC(=O)O)C(=O)N[C@@H](CCC(=O)O)C(=O)N[C@@H](CCC(=O)O)C(=O)N1CCC[C@H]1C(=O)N[C@@H](CO)C(=O)N[C@@H](CO)C(=O)NCC(=O)N[C@@H](C)C(=O)N1CCC[C@H]1C(=O)N1CCC[C@H]1C(=O)N1CCC[C@H]1C(=O)N[C@@H](CO)C(=O)O)C(C)C [Compound A10] (H-YSHGTFTSDYSKYLD[Aib]KRAQEFV[Aib]WLEDEEPSSGAPPPS-OH; N-terminus assumed)	0.00501	> 1	–
CC(C)C[C@H](NC(=O)[C@H](Cc1ccc(O)cc1)NC(=O)[C@H](CCCCN)NC(=O)[C@H](CO)NC(=O)[C@H](Cc1ccc(O)cc1)NC(=O)[C@H](CC(=O)O)NC(=O)[C@H](CO)NC(=O)[C@@H](NC(=O)[C@H](Cc1ccccc1)NC(=O)[C@@H](NC(=O)CNC(=O)[C@H](Cc1c[nH]cn1)NC(=O)[C@H](CO)NC(=O)[C@@H](N)Cc1ccc(O)cc1)[C@@H](C)O)[C@@H](C)O)C(=O)N[C@@H](CC(=O)O)C(=O)NC(C)(C)C(=O)N[C@@H](CCCCN)C(=O)N[C@@H](C)C(=O)N[C@@H](C)C(=O)N[C@@H](CCC(N)=O)C(=O)N[C@@H](CCC(=O)O)C(=O)N[C@@H](Cc1ccccc1)C(=O)N[C@H](C(=O)NC(C)(C)C(=O)N[C@@H](Cc1c[nH]c2ccccc12)C(=O)N[C@@H](CC(C)C)C(=O)N[C@@H](CCC(=O)O)C(=O)N[C@@H](CC(=O)O)C(=O)N[C@@H](CCC(=O)O)C(=O)N1CCC[C@H]1C(=O)N[C@@H](CO)C(=O)N[C@@H](CO)C(=O)NCC(=O)N[C@@H](CCCCN)C(=O)N1CCC[C@H]1C(=O)N1CCC[C@H]1C(=O)N1CCC[C@H]1C(=O)N[C@@H](CO)C(=O)O)C(C)C [Compound A90] (H-YSHGTFTSDYSKYLD[Aib]KAAQEFV[Aib]WLEDEPSSGKPPPS-OH; N-terminus assumed)	–	> 1	–
CC(C)C[C@H](NC(=O)[C@H](Cc1ccc(O)cc1)NC(=O)[C@H](CCCCN)NC(=O)[C@H](CO)NC(=O)[C@H](Cc1ccc(O)cc1)NC(=O)[C@H](CC(=O)O)NC(=O)[C@H](CO)NC(=O)[C@@H](NC(=O)[C@H](Cc1ccccc1)NC(=O)[C@@H](NC(=O)CNC(=O)[C@H](CCC(N)=O)NC(=O)[C@H](CO)NC(=O)[C@@H](N)Cc1ccc(O)cc1)[C@@H](C)O)[C@@H](C)O)C(=O)N[C@@H](CC(=O)O)C(=O)NC(C)(C)C(=O)N[C@@H](CCCCN)C(=O)N[C@@H](C)C(=O)N[C@@H](C)C(=O)N[C@@H](CCC(N)=O)C(=O)N[C@@H](CCC(=O)O)C(=O)N[C@@H](Cc1ccccc1)C(=O)N[C@H](C(=O)NC(C)(C)C(=O)N[C@@H](Cc1c[nH]c2ccccc12)C(=O)N[C@@H](CC(C)C)C(=O)N[C@@H](CCC(=O)O)C(=O)N[C@@H](CC(=O)O)C(=O)N[C@@H](CCC(=O)O)C(=O)N1CCC[C@H]1C(=O)N[C@@H](CO)C(=O)N[C@@H](CO)C(=O)NCC(=O)N[C@@H](CCCCN)C(=O)N1CCC[C@H]1C(=O)N1CCC[C@H]1C(=O)N1CCC[C@H]1C(=O)N[C@@H](CO)C(=O)O)C(C)C [Compound A96] (H-YSQGTFTSDYSKYLD[Aib]KAAQEFV[Aib]WLEDEPSSGKPPPS-OH; N-terminus assumed)	–	> 1	–
GLP-1 (7-37): form of glucagon-like peptide-1 used as comparator in the receptor activation profiles of FIG. 1 [reference compound]	–	–	much lower potency
